Results from US11033600B2, “Protease transition state inhibitor prodrugs” (priority 2016, dated 2021).
pEC50, pIC50: −log10 of the molar value. Read-outs that look alike come from different tables or passages of the source.

Tests used:
[1] = target: norovirus 3CL protease (NV 3CLpro) (Norovirus, UniProt Q83883); experiment: FRET protease assay (3CL protease), enzyme inhibition; format: biochemical
Procedure: FRET protease assays. The FRET protease assay (3CL protease) was performed by preparing stock solutions of the substrate (Edans-DFHLQ/GP-Dabcyl, SEQ ID NO:1) and inhibitor in DMSO and diluting into assay buffer which was comprised of 20 mM HEPES buffer, pH 8, containing NaCl (200 mM), 0.4 mM EDTA, glycerol (60%), and 6 mM dithiothreitol (DTT). The protease was mixed with serial dilutions of each compound up to 100 μM or with DMSO in 25 μL of assay buffer and incubated at 37° C. for 30 min, followed by the addition of 25 μL of assay buffer containing substrate. Fluorescence readings were obtained using an excitation wavelength of 360 nm and an emission wavelength of 460 nm on a fluorescence microplate reader (FLx800; Biotec, Winoosk, Vt.) 1 h following the addition of substrate. Relative fluorescence units (RFU) were determined by subtracting background values (substrate-containing well without protease) from the raw fluorescence values. The dose-dependent FRET inhibition curves were fitted with a variable slope by using GraphPad Prism software (GraphPad, La Jolla, Calif.) in order to determine the IC50 values of the inhibitors.

[2] = test system: NV in replicon harboring cells (HG23 cells); experiment: Cell-based assay: virus replication in NV replicon harboring cells (HG23 cells), qRT-PCR; parameters: species or system norovirus (NV); settings: for pEC50: HG23 cells, 48 h
Procedure: The effects of each inhibitor on virus replication were examined against NV in the NV replicon harboring cells (HG23 cells). Briefly, confluent and semi-confluent HG23 cells were incubated with medium containing DMSO (<0.1%) or each compound (up to 200 uM) for 48 h. After the incubation, total RNA was extracted and viral genome was quantitated with real-time quantitative RT-PCR (qRT-PCR). The EC50 values were determined by GraphPadPrism software.

[3] = Table 1, ester prodrugs, average of at least two determinations, read-out: IC50 (50% inhibitory concentration in the enzyme assay)
[4] = Table 1, ester prodrugs, read-out: EC50 (50% effective concentration in cell culture)

Chain of norovirus 3CL protease (NV 3CLpro) (Q83883 1101-1281): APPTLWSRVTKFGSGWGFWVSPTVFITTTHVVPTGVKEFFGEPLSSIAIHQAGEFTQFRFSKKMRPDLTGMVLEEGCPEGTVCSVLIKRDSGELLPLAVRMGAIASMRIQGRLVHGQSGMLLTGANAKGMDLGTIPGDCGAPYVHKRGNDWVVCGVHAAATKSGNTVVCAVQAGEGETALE

SMILES	pIC50 [1, 3]	pEC50 [2, 4]	pIC50 ([1]; Table 2, carbamate prodrugs, read-out: IC50)	pEC50 ([2]; Table 2, carbamate prodrugs, read-out: EC50)	EC50 ([2]; Norovirus, HG23, in μM, read-out: EC50) [µM]
CC(C)C[C@H](NC(=O)OCc1ccccc1)C(=O)N[C@@H](C[C@@H]1CCNC1=O)C(OC(=O)C(C)C)S(=O)(=O)O (stereo partly drawn) [Compound 8, (5S,8S)-5-Isobutyl-12-methyl-3,6,11-trioxo-8-(((S)-2-oxopyrrolidin-3-yl)methyl)-1-phenyl-2,10-dioxa-4,7-diazatridecane-9-sulfonate]	5.46	6.52			
CC(=O)OC([C@H](C[C@@H]1CCNC1=O)NC(=O)[C@H](CC(C)C)NC(=O)OCc1ccccc1)S(=O)(=O)O (stereo partly drawn) [Compound 1, (5S,8S)-5-Isobutyl-3,6,11-trioxo-8-(((S)-2-oxopyrrolidin-3-yl)methyl)-1-phenyl-2,10-dioxa-4,7-diazadodecane-9-sulfonate]	4.98	6.22			
CC(C)C(=O)OC([C@H](C[C@@H]1CCNC1=O)NC(=O)[C@H](CC1CCCCC1)NC(=O)OCc1cccc(Cl)c1)S(=O)(=O)O (stereo partly drawn) [Compound 13, (5 S, 8S)-1-(3-Chlorophenyl)-5-(cyclohexylmethyl)-12-methyl-3,6,11-trioxo-8-(((S)-2-oxopyrrolidin-3-yl)methyl)-2,10-dioxa-4,7-diazatridecane-9-sulfonate]	6.52	7.52			
CCCCCCCC(=O)OC([C@H](C[C@@H]1CCNC1=O)NC(=O)[C@H](CC(C)C)NC(=O)OCc1ccccc1)S(=O)(=O)O (stereo partly drawn) [Compound 6, (5S,8S)-5-Isobutyl-3,6,11-trioxo-8-(((S)-2-oxopyrrolidin-3-yl)methyl)-1-phenyl-2,10-dioxa-4,7-diazaoctadecane-9-sulfonate]	5.52	6.30			
CCC(=O)OC([C@H](CC1CCNC1=O)NC(=O)[C@H](CC1CCCCC1)NC(=O)OCc1cccc(Cl)c1)S(=O)(=O)O (stereo partly shown) [Compound 10, (5 S, 8S)-1-(3-chlorophenyl)-5-(cyclohexylmethyl)-3,6,11-trioxo-8-((2-oxopyrrolidin-3-yl)methyl)-2,10-dioxa-4,7-diazatridecane-9-sulfonate]	7.00	7.60			
CC(C)C[C@H](NC(=O)OCc1ccccc1)C(=O)N[C@@H](C[C@@H]1CCNC1=O)C(OC(=O)c1ccccc1)S(=O)(=O)O (stereo partly drawn) [Compound 7, (5S,8S)-5-Isobutyl-3,6,11-trioxo-8-(((S)-2-oxopyrrolidin-3-yl)methyl)-1,11-diphenyl-2,10-dioxa-4,7-diazaundecane-9-sulfonate]	5.14	6.10			
COC(=O)CNC(=O)OC([C@H](C[C@@H]1CCNC1=O)NC(=O)[C@H](CC(C)C)NC(=O)OCc1ccccc1)S(=O)(=O)O (stereo partly drawn) [Compound 18, (5 S,8S)-5-Isobutyl-3,6,11,14-tetraoxo-8-(((S)-2-oxopyrrolidin-3-yl)methyl)-1-phenyl-2,10,15-trioxa-4,7,12-triazahexadecane-9-sulfonate]			5.51	6.40	
O=C[C@H](C[C@@H]1CCNC1=O)NC(=O)[C@H](CC1CCCCC1)NC(=O)OCc1cccc(Cl)c1 [Compound 25, reference compound]					0.02
CCCCCCCC(=O)OC([C@H](C[C@@H]1CCNC1=O)NC(=O)[C@H](CC1CCCCC1)NC(=O)OCc1cccc(Cl)c1)S(=O)(=O)O (stereo partly drawn) [Compound 12, (5 S, 8S)-1-(3-Chlorophenyl)-5-(cyclohexylmethyl)-3,6,11-trioxo-8-(((S)-2-oxopyrrolidin-3-yl)methyl)-2,10-dioxa-4,7-diazaoctadecane-9-sulfonate]	6.05	7.52			
CCC(=O)OC([C@H](C[C@@H]1CCNC1=O)NC(=O)[C@H](CC(C)C)NC(=O)OCc1ccccc1)S(=O)(=O)O (stereo partly drawn) [Compound 2, (5S,8S)-5-Isobutyl-3,6,11-trioxo-8-(((S)-2-oxopyrrolidin-3-yl)methyl)-1-phenyl-2,10-dioxa-4,7-diazatridecane-9-sulfonate]	5.12	6.15			
